Patent US11396522B2, “Bis-acetal-based substrates for imaging exo-glycosidase activity” (ALECTOS THERAPEUTICS INC., priority 2017, dated 2022)
“Also recorded” adds a separate entry of the source.

Assays:
GBA1 = target: T1, GBA1 (Homo sapiens, UniProt P04062); assay: Live cell imaging of GBA1 activity in SK-N-SH cells; assay type: cell-based
T1 sequence (P04062 40-536): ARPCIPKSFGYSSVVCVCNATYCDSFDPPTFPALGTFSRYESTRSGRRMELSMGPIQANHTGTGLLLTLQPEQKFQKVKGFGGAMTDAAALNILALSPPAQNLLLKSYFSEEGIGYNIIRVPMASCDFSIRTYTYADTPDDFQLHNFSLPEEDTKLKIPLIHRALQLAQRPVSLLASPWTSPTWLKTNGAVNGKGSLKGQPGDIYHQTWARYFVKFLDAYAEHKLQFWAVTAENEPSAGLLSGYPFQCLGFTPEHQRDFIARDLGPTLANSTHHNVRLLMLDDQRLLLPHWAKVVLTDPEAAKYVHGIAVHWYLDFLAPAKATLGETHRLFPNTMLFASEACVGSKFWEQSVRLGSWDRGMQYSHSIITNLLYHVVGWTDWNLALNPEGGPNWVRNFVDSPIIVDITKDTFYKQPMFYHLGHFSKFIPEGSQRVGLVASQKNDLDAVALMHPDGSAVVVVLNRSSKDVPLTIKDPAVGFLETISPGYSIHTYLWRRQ
Description: SK-N-SH cells were cultured, except where indicated otherwise, in EMEM supplemented with 10% FBS and 1% penicillin-streptomycin at 37° C. and 5% CO2. The media was replaced every 3-4 days and the cells passaged after reaching 70-80% confluency, which occurred approximately every week. For imaging experiments, cells were seeded in triplicate into the central 60 wells of a sterile 96-well plate (Corning 4680) at a density of 10000 cells/well.
Fluorescence measurements in live cells was performed using a Molecular Devices ImageXpress XLS High-Content Imaging system (HCl). Live cells were plated in a 96-well or 384-well Corning plates. Cells were left to adhere and incubated at 37° C. in 5% CO2 for at least 12 h in EMEM supplemented with 10% FBS and 1% penicillin-streptomycin before any treatment. Cells were then washed with warm (37° C.) EMEM (with no phenol red and FBS). A mixture of vehicle, substrate dissolved in DMSO (0.1% final concentration of DMSO), or substrate and inhibitor mixture, were added to the imaging media (EMEM with no phenol red or FBS supplemented with DAPI) which was then added to these cells and incubated at 37° C. and 5% CO2 in the dark for the times specified (typically 2 h). […] For each well, 9 sites were imaged at predefined regions of each well and 2 to 3 channel were recorded (DAPI, FITC, TRITC). The data was analyzed using the MetaXpress software suite. by determining the Mean Integrated Intensity obtained using the TRITC channel and dividing by the number of cells (determined thanks to DAPI staining).
The Glc-H-BABS(TAMRA/BHQ2) 8 was also evaluated in the human neuronal cell culture model cells SK-N-SH. […] By integrating the fluorescence intensity from randomly selected fields, it was possible to observe a quantitative increase in fluorescence with increasing concentrations of the Glc-BABS 8. Next, it was established that there is a dose-dependent cellular fluorescence where a linear increase in fluorescence was observed that depended on the concentration of Glc-BABS 8 (FIG. 12). […]

hOGA = target: T2, hOGA (Homo sapiens, UniProt O60502); assay: Interrupted assay for determination of hemiacetal breakdown; assay type: biochemical
T2 construct: started by addition of hOGA (WT, Full-length, expressed in E. coli. as previously described); made in house; host or cells: E. coli
T2 sequence (O60502 1-916): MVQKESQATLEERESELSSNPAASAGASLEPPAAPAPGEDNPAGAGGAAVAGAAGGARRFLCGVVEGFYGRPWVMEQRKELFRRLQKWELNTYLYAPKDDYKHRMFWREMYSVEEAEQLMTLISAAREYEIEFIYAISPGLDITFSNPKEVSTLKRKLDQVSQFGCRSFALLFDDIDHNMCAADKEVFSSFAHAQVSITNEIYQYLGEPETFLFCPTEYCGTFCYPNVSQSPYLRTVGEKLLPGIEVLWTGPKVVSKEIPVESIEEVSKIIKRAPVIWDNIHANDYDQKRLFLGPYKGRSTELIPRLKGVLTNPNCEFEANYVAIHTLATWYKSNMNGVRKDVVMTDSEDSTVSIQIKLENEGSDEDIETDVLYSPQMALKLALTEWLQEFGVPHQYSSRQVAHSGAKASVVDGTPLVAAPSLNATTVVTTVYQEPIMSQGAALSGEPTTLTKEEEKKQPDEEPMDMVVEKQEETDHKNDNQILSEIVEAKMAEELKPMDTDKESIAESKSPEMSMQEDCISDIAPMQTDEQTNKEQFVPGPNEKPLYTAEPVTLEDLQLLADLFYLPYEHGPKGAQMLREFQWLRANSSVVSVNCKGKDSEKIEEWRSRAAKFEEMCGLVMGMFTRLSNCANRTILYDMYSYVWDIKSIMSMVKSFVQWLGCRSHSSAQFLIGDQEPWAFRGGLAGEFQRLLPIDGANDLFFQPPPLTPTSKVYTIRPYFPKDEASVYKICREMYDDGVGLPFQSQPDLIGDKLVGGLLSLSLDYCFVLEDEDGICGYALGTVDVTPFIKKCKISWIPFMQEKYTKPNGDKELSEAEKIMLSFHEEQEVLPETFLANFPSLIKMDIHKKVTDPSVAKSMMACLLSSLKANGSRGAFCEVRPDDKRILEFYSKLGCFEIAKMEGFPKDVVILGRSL
Description: For some experiments, fluorescence kinetic assays were performed using a Varian Cary Eclipse Spectrophotometer set for 335/493 nm excitation/emission wavelengths. Slits were set at 10 nm and the detector was set on Medium voltage. Enzymatic reactions with human OGA were carried out in PBS at 37° C. and were started by addition of hOGA (WT, Full-length, expressed in E. coli. as previously described) in a total volume of 160 μL (Starna sub-micro Fluorometer cuvette). For measurements of rates using different concentrations of substrates, a hOGA concentration of 100 nM was used. For hOGA titration, 25 μM of Glyco-BABS were added to various concentration of hOGA. For interrupted assay, reaction was started by addition of hOGA (680 nM final) in solutions of GlcNAc-BABS in PBS. […] For hemiacetal breakdown rate measurements, data after Thiamet-G addition was extracted and fitted using Prism software. EDANS standard curve was established using endpoint fluorescence measurements of serial dilutions of EDANS in the relevant buffer using the same instrument parameters. Inner-Filter effect measurements were carried out in cuvette by measuring fluorescence of several concentrations of EDANS in presence of various concentrations of GlcNAc-BABS. Kinetics with Glc-BABS and GBA enzymes (GBA1 and GBA3 purchased from R&D Systems), kinetics with GALC (R&D systems) and Gal-BABS, pH stability, quenching efficiency, some inner-filter effect experiments and lysates experiments were carried out using a Molecular Devices SpectraMax i3× plate reader. Emission/Excitation wavelengths were set at 350 and 490 nm respectively for EDANS/DABCYL Glyco-BABS and at 565 and 610 nm respectively for TAMRA/BHQ2 Glyco-BABS. Fluorescence measurements were performed using Costar 96-well black plates or Nunc 384-well black plates after sample preparation in 96-well mixing plates. For GBA1, the continuous assay was performed in citrate buffer (50 mM, pH 5.5) in the presence of 0.1% Triton, 1 mg/mL BSA and 0.14% taurodeoxycholate at 25° C. […]

[1] = pH stability of Glyco-BABS; assay type: physicochemical; conditions: 5 μM, up to 72 h, pH 2 to 10
Excerpt: One concern with the Glyco-BABS design was the known lability of acetals under acidic conditions that has been exploited in pH-sensitive prodrugs or linkers for drug delivery.^41,42 However, we recognized that carbohydrate anomeric acetals are chemically distinct from regular acetals. Due to stabilization by the endocyclic oxygen, we expected these bis-acetals would show stability across a range of physiological pH values. We therefore assessed the stability of the bis-acetal motif toward acid and base hydrolysis (FIG. 8). To do so, we tested the pH stability of 5 μM of GlcNAc-Br-BABS 1, GlcNAc-OH-BABS 2, Glc-OH-BABS 6 and Glc-H-BABS 7 at different pH over time. We prepared solutions at various pH by mixing 0.2 M KCl+0.1 M HCl with 0.2 M KCl+0.1 M KOH. Fluorescence of EDANS and Glyco-BABS solutions (5 μM, 45 μL) at different pH was measured at different time points in Nunc 384-well plates using a SpectraMax i3× plate reader. Data (triplicates) support the highly efficient quenching and the stability of these substrates over a wide range of pH.

## COc1cc(/N=N/c2ccc([N+](=O)[O-])cc2)c(OC)cc1/N=N/c1ccc(N(C)CCCC(=O)NCc2cn(CCOCCOC(CC(=O)NCCCCCCNC(=O)c3ccc(-c4c5ccc(=[N+](C)C)cc-5oc5cc(N(C)C)ccc45)c(C(=O)[O-])c3)O[C@@H]3O[C@H](CO)[C@@H](O)[C@H](O)[C@H]3O)nn2)cc1 (stereo partly drawn) [Compound 8, 5-((6-(3-(2-(2-(4-((4-((4-((E)-(2,5-dimethoxy-4-((E)-(4-nitrophenyl)diazenyl)phenyl)diazenyl)phenyl)(methyl)amino)butanamido)methyl)-1H-1,2,3-triazol-1-yl)ethoxy)ethoxy)-3-(((2S,3R,4S,5S,6R)-3,4,5-trihydroxy-6-(hydroxymethyl)tetrahydro-2H-pyran-2-yl)oxy)propanamido)hexyl)carbamoyl)-2-(6-(dimethylamino)-3-(dimethyliminio)-3H-xanthen-9-yl)benzoate]
GBA1; 5 μM and varying concentrations, 1 to 2 h
  processing to fluorescent product in live SK-N-SH cells: processed in cells to result in the fluorescent product

## CC(=O)N[C@H]1[C@H](O[C@@H](OCCOCCn2cc(CNC(=O)c3ccc(/N=N/c4ccc(N(C)C)cc4)cc3)nn2)[C@@](C)(O)C(=O)NCCNc2cccc3c(S(=O)(=O)O)cccc23)O[C@H](CO)[C@@H](O)[C@@H]1O [Compound 2, 5-((2-((2R,3R)-3-(((2S,3R,4R,5S,6R)-3-acetamido-4,5-dihydroxy-6-(hydroxymethyl)tetrahydro-2H-pyran-2-yl)oxy)-3-(2-(2-(4-((4-((E)-(4-(dimethylamino)phenyl)diazenyl)benzamido)methyl)-1H-1,2,3-triazol-1-yl)ethoxy)ethoxy)-2-hydroxy-2-methylpropanamido)ethyl)amino)naphthalene-1-sulfonic Acid]
hOGA; hemiacetal generated from the substrate, hOGA stopped after 1 min with Thiamet-G 100 μM
  first order rate constant (k3) for hemiacetal breakdown: 0.044 s⁻¹
hOGA; ratio of k3
  hemiacetal breakdown, times faster than the one from GlcNAc-Br-BABS 1: 4.5 times
[1]
  pH stability (increase of fluorescence): no significant increase of fluorescence

## O[C@H]1[C@H](O)CNC[C@@H]1C(F)F [AT3375, (3R,4R,5S)-5-(difluoromethyl)piperidine-3,4-diol]
GBA1; 10 μM AT3375 with 5 μM Glc-BABS 8
  effect on fluorescent signal of Glc-BABS 8 in live SK-N-SH cells: significant reduction; also recorded: clear decrease of the signal
GBA1; varying AT3375 concentrations, 5 μM Glc-BABS 8, 2 h
  fluorescence signal vs inhibitor concentration in live SK-N-SH cells: decreasing fluorescence signal with increasing inhibitor concentration
